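Tested at 5 concentrations; 48 h exposure; 96-well plates; endpoints linearly interpolated, else capped at highest concentration. Abbreviation: GI50, concentration required for 50% inhibition of growth.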 The source made the active and inactive calls. No stated cut-off is given here; in the data, active = GI50 up to about 1.1 µM and inactive = higher.
Assays:
Test in all cases: NCI anticancer screen, dose series, 48 h
LOX IMVI = tested on: LOX IMVI
Malme-3M = tested on: Malme-3M
UACC-257 = tested on: UACC-257
HT-29 = tested on: HT-29
CCRF-CEM = tested on: CCRF-CEM
OVCAR-5 = tested on: OVCAR-5
EKVX = tested on: EKVX
PC-3 = tested on: PC-3
A549 = tested on: A549
NCI-H226 = tested on: NCI-H226
HCT-15 = tested on: HCT-15
TK-10 = tested on: TK-10
786-0 = tested on: 786-0
OVCAR-4 = tested on: OVCAR-4
UACC-62 = tested on: UACC-62
SK-MEL-5 = tested on: SK-MEL-5
SF-295 = tested on: SF-295
SK-MEL-2 = tested on: SK-MEL-2
COLO 205 = tested on: COLO 205
T47D = tested on: T47D

Row | SMILES | GI50 (LOX IMVI) | GI50 (Malme-3M) | GI50 (UACC-257) | GI50 (HT-29) | GI50 (CCRF-CEM) | GI50 (OVCAR-5) | GI50 (EKVX) | GI50 (PC-3) | GI50 (A549) | GI50 (NCI-H226) | GI50 (HCT-15) [µM] | GI50 (TK-10) | GI50 (786-0) | GI50 (OVCAR-4) | GI50 (UACC-62) | GI50 (SK-MEL-5) | GI50 (SF-295) | GI50 (SK-MEL-2) | GI50 (COLO 205) | GI50 (T47D)
1 | CCC(C)c1c(Cl)nc(Cl)nc1Cl (configuration not stated) | 0.44 µM (active) | 5.75 µM (inactive) | > 10 µM (inactive) | 6.01 µM (inactive) | 0.1 µM (active) | 16.7 µM (inactive) | 15.5 µM (inactive) | 12.7 µM (inactive) | > 10 µM (inactive) | 2.86 µM (inactive) | 5.13 | 21.3 µM (inactive) | 10.9 µM (inactive) | 16.9 µM (inactive) | 18.6 µM (inactive) | 2.81 µM (inactive) | 24 µM (inactive) | 20.9 µM (inactive) |  | 
2 | CC(CO)CCC(O)C(C)(O)C1CCC2(O)C3=CC(=O)C4CC(O)C(O)CC4(C)C3CCC12C (configuration not stated) | > 100 µM (inactive) | > 100 µM (inactive) | > 100 µM (inactive) | > 100 µM (inactive) | 81.3 µM (inactive) | > 100 µM (inactive) | > 100 µM (inactive) | > 100 µM (inactive) | > 100 µM (inactive) | > 100 µM (inactive) | > 100 |  | > 100 µM (inactive) | > 100 µM (inactive) | > 100 µM (inactive) | > 100 µM (inactive) | > 100 µM (inactive) | > 100 µM (inactive) | > 100 µM (inactive) | 
3 | O=C(CC1(O)C(=O)Nc2ccccc21)c1cccc(O)c1 (configuration not stated) | > 100 µM (inactive) | > 100 µM (inactive) | > 100 µM (inactive) | > 100 µM (inactive) |  | > 100 µM (inactive) | > 100 µM (inactive) |  | > 100 µM (inactive) | > 100 µM (inactive) | > 100 | > 100 µM (inactive) | > 100 µM (inactive) | > 100 µM (inactive) | > 100 µM (inactive) | 48.3 µM (inactive) | > 100 µM (inactive) | > 100 µM (inactive) | > 100 µM (inactive) | 
4 | CN1C(=O)C(O)CC1c1ccccc1C(F)(F)F (configuration not stated) | > 100 µM (inactive) | > 100 µM (inactive) | > 100 µM (inactive) | > 100 µM (inactive) | > 100 µM (inactive) | > 100 µM (inactive) | > 100 µM (inactive) | > 100 µM (inactive) | > 100 µM (inactive) | > 100 µM (inactive) | > 100 |  | > 100 µM (inactive) | > 100 µM (inactive) | > 100 µM (inactive) | > 100 µM (inactive) | > 100 µM (inactive) | > 100 µM (inactive) | > 100 µM (inactive) | 
5 | Clc1cccc(/N=C/C=C/Nc2cccc(Cl)c2)c1 | 6.32 µM (inactive) | > 10 µM (inactive) | 16.6 µM (inactive) | 16.7 µM (inactive) | > 10 µM (inactive) | 24.8 µM (inactive) | > 10 µM (inactive) | 15.1 µM (inactive) | 28.5 µM (inactive) | > 10 µM (inactive) | 17.8 | 37.8 µM (inactive) | 15.7 µM (inactive) | 40.4 µM (inactive) |  | 16.8 µM (inactive) | 12.1 µM (inactive) |  | 16.3 µM (inactive) | 
6 | CC(C)(C)OC(=O)[C@H]1CCC(=S)N1Cc1ccccc1 | > 100 µM (inactive) | > 100 µM (inactive) | > 100 µM (inactive) |  | > 100 µM (inactive) | > 100 µM (inactive) | > 100 µM (inactive) | > 100 µM (inactive) | > 100 µM (inactive) | > 100 µM (inactive) | > 100 | > 100 µM (inactive) | > 100 µM (inactive) | > 100 µM (inactive) | > 100 µM (inactive) | > 100 µM (inactive) | > 100 µM (inactive) | > 100 µM (inactive) | > 100 µM (inactive) | 
7 | CN(Cc1ccccc1)C(=O)c1ccccc1C(=O)O | > 100 µM (inactive) | > 100 µM (inactive) | > 100 µM (inactive) | > 100 µM (inactive) | > 100 µM (inactive) | > 100 µM (inactive) | > 100 µM (inactive) |  | > 100 µM (inactive) | > 100 µM (inactive) | > 100 | > 100 µM (inactive) | > 100 µM (inactive) | > 100 µM (inactive) |  |  | > 100 µM (inactive) | > 100 µM (inactive) | > 100 µM (inactive) | 
8 | N[C@H]1C2C3CC4C5CC(C42)C1(c1ccccc1)C53 (some centres not stated) | > 100 µM (inactive) | > 100 µM (inactive) | > 10 µM (inactive) | 62.5 µM (inactive) | > 100 µM (inactive) | 75 µM (inactive) | > 100 µM (inactive) |  | > 100 µM (inactive) | > 100 µM (inactive) | > 100 | > 100 µM (inactive) | > 100 µM (inactive) | > 100 µM (inactive) | > 100 µM (inactive) | > 100 µM (inactive) | > 100 µM (inactive) | > 100 µM (inactive) | 81.3 µM (inactive) | 
9 | COC1=CC(=O)C2[C@H]3Cc4ccccc4[C@H]3C2(C)C1=O (some centres not stated) | > 100 µM (inactive) | > 100 µM (inactive) | > 100 µM (inactive) | > 100 µM (inactive) | 55.2 µM (inactive) | > 100 µM (inactive) | > 100 µM (inactive) |  | > 100 µM (inactive) | 81.8 µM (inactive) | 94.6 | > 100 µM (inactive) | > 100 µM (inactive) | > 100 µM (inactive) | > 100 µM (inactive) | > 100 µM (inactive) | > 100 µM (inactive) | > 100 µM (inactive) | > 100 µM (inactive) | 
10 | COc1cc(C(=O)N[C@H]2CCc3cc(OC)c(OC)c(OC)c3-c3ccc(SC)c(=O)cc32)cc(OC)c1OC | 0.00603 µM (active) | 0.02 µM (active) | 0.0586 µM (active) | 0.00641 µM (active) | 0.00705 µM (active) | 0.0107 µM (active) | 0.0106 µM (active) |  | 0.0813 µM (active) | < 0.01 µM (active) | 0.444 | 0.215 µM (active) | 0.0223 µM (active) | 1.42 µM (inactive) | 0.0316 µM (active) | 0.0132 µM (active) | 0.00962 µM (active) | 0.0102 µM (active) | 0.0342 µM (active) | 
11 | C/C(N)=[N+](/C)[O-] | 15.5 µM (inactive) | > 100 µM (inactive) | > 100 µM (inactive) | 83.6 µM (inactive) | 23.4 µM (inactive) | > 100 µM (inactive) | > 100 µM (inactive) |  | > 100 µM (inactive) | > 100 µM (inactive) | 19.9 | > 100 µM (inactive) | > 100 µM (inactive) | 38.5 µM (inactive) | > 100 µM (inactive) | > 100 µM (inactive) | > 100 µM (inactive) | > 100 µM (inactive) | 17.2 µM (inactive) | 
12 | N=C(N)N1CCC(N2CCOCC2)CC1 |  | > 100 µM (inactive) | > 100 µM (inactive) | > 100 µM (inactive) | > 100 µM (inactive) | > 100 µM (inactive) | > 100 µM (inactive) |  | > 100 µM (inactive) | > 100 µM (inactive) | > 100 | > 100 µM (inactive) | > 100 µM (inactive) | > 100 µM (inactive) | > 100 µM (inactive) | > 100 µM (inactive) | > 100 µM (inactive) |  | > 100 µM (inactive) | > 100 µM (inactive)
13 | Cc1cc2c(=O)cc(-c3ccc(Cl)c(Cl)c3)oc2c(C(=O)O)c1C | > 100 µM (inactive) | > 100 µM (inactive) | > 100 µM (inactive) | > 100 µM (inactive) | > 100 µM (inactive) | > 100 µM (inactive) | > 100 µM (inactive) |  | > 100 µM (inactive) | > 100 µM (inactive) | > 100 | > 100 µM (inactive) | > 100 µM (inactive) | > 100 µM (inactive) | > 100 µM (inactive) | > 100 µM (inactive) | > 100 µM (inactive) | > 100 µM (inactive) | > 100 µM (inactive) | 
14 | C=Nc1ccc([N+](=O)[O-])cc1 | 43.5 µM (inactive) | > 100 µM (inactive) | > 100 µM (inactive) | > 100 µM (inactive) | > 63.1 µM (inactive) | > 100 µM (inactive) | > 100 µM (inactive) |  | > 100 µM (inactive) | > 100 µM (inactive) | > 60.1 | > 100 µM (inactive) | > 100 µM (inactive) | > 100 µM (inactive) | > 84.5 µM (inactive) | > 100 µM (inactive) | > 100 µM (inactive) | > 100 µM (inactive) | > 100 µM (inactive) | 
15 | CC1=[N+]([O-])c2ccccc2C(=O)C1=O | 41 µM (inactive) | > 100 µM (inactive) | 65.8 µM (inactive) | > 100 µM (inactive) | 25.9 µM (inactive) | > 100 µM (inactive) | > 100 µM (inactive) |  | > 100 µM (inactive) | 15.8 µM (inactive) | 56.4 | > 100 µM (inactive) | > 100 µM (inactive) | 68.5 µM (inactive) | 55.6 µM (inactive) | > 100 µM (inactive) | > 100 µM (inactive) | > 100 µM (inactive) | > 100 µM (inactive) | 
16 | Cc1cc(N(CCC#N)CCC#N)ccc1/C=C(\NC(=O)/C=C/c1ccccc1)NC(=O)Nc1ccc(Cl)cc1 | 1.83 µM (inactive) | 73.6 µM (inactive) | > 100 µM (inactive) | > 100 µM (inactive) | > 100 µM (inactive) | > 100 µM (inactive) | 47.9 µM (inactive) |  | 32.5 µM (inactive) | 30.9 µM (inactive) | > 100 |  | 51.6 µM (inactive) | 18.9 µM (inactive) | 8.83 µM (inactive) | 3.83 µM (inactive) | 42.5 µM (inactive) | > 100 µM (inactive) | > 100 µM (inactive) | 
